Assay results: paper PMC5794925, “Expression and specificity of a chitin deacetylase from the nematophagous fungus Pochonia chlamydosporia potentially involved in pathogenicity” (Scientific Reports, 2018)

Molecular target: T1, PcCDA catalytic domain (Pochonia chlamydosporia, UniProt A0A179FW77)
T1 construct: gene VFPPC_13269
T1 sequence (A0A179FW77 94-309): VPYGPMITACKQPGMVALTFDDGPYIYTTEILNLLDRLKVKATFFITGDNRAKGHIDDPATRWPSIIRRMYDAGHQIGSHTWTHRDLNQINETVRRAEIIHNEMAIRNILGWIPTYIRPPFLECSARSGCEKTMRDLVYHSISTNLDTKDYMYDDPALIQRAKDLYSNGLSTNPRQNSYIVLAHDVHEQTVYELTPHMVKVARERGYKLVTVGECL
Experiment: HPLC-MS of deacetylated products
Format: biochemical
Details: 0.2 mM substrate, 3.2 nM enzyme, 50 mM K2HPO4, 300 mM NaCl, pH 8.0, 37 °C; refolded with Zn2+

CC(=O)N[C@H]1[C@H](O[C@H]2[C@H](O)[C@@H](NC(C)=O)C(O)O[C@@H]2CO)O[C@H](CO)[C@@H](O[C@@H]2O[C@H](CO)[C@@H](O[C@@H]3O[C@H](CO)[C@@H](O)[C@H](O)[C@H]3NC(C)=O)[C@H](O)[C@H]2NC(C)=O)[C@@H]1O (stereo partly shown) [A4, GlcNAc4]
HPLC-MS of deacetylated products: With the A4 substrate, the enzyme was also active but slower than with the A5
